Laboratory results as given in ChEMBL document CHEMBL4507276 (2021).

Legend:
[1] = target: Vascular endothelial growth factor receptor 1 (Homo sapiens) (UniProt P17948); experiment: FLT-1(VEGFR1)_CE Cerep selectivity data (BI); details: Compound concentration 20.0 uM
[2] = target: CDK9/Cyclin K (Homo sapiens) (UniProt P50750+O75909); experiment: CDK9_CYCLINK Invitrogen selectivity data (BI); assay type: protein-complex assay; details: Compound concentration 3.0 uM
[3] = target: Misshapen-like kinase 1 (Homo sapiens) (UniProt Q8N4C8); experiment: MINK1 Invitrogen selectivity data (BI); details: Compound concentration 3.0 uM
[4] = target: T1, Dual specificity mitogen-activated protein kinase kinase 3 (Homo sapiens) (UniProt P46734); experiment: MAP2K3 Invitrogen selectivity data (BI); details: Compound concentration 3.0 uM
T1 sequence (whole entry): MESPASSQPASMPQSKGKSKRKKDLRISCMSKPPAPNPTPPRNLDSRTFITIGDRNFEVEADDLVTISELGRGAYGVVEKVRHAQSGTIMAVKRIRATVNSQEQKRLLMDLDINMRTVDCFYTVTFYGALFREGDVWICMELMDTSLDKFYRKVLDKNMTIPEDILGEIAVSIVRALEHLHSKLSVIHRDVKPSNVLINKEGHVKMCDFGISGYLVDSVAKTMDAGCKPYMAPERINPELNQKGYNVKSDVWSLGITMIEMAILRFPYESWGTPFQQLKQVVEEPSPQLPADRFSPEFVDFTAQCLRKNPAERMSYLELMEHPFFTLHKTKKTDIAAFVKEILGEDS

[5] = target: Mast/stem cell growth factor receptor Kit (Homo sapiens) (UniProt P10721); experiment: KIT Invitrogen selectivity data (BI); details: Compound concentration 3.0 uM
[6] = target: T2, Beta-adrenergic receptor kinase 1 (Homo sapiens) (UniProt P25098); experiment: ADRBK1 Invitrogen selectivity data (BI); details: Compound concentration 3.0 uM
T2 sequence (whole entry): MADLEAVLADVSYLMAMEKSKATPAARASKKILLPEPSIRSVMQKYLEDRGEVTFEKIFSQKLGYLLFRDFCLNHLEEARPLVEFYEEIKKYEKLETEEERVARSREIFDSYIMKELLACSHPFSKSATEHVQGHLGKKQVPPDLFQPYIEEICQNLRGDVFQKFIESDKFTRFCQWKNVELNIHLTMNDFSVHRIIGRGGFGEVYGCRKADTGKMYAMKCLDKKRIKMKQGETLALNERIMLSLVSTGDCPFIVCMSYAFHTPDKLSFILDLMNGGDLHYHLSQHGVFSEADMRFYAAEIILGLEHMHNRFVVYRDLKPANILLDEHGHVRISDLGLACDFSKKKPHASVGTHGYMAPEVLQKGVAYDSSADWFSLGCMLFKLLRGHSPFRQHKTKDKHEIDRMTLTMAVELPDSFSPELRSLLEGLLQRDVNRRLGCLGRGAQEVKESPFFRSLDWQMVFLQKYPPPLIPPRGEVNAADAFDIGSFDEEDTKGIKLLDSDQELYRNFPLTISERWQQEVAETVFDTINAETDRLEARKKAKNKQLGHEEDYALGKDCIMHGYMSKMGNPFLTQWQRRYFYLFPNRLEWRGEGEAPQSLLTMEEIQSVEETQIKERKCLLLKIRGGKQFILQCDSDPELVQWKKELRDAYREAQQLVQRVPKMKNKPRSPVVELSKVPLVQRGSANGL

[7] = target: T3, Alpha-2A adrenergic receptor (Homo sapiens) (UniProt P08913); experiment: ALPHA2A/H Eurofins-Panlabs selectivity data (BI); details: Compound concentration 10.0 uM
T3 sequence (whole entry): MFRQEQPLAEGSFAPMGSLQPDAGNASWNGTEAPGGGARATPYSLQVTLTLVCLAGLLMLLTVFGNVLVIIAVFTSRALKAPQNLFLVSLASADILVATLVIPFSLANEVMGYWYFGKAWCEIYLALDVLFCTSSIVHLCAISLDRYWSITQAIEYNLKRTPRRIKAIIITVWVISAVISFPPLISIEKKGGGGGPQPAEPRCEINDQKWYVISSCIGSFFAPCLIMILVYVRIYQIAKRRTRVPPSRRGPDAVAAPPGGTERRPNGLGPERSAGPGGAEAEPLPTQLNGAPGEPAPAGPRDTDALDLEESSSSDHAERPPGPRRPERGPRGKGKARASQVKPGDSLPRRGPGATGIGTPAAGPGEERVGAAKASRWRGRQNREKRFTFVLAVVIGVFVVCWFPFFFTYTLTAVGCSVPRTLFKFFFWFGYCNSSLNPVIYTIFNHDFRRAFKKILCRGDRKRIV

[8] = target: T4, Megakaryocyte-associated tyrosine-protein kinase (Homo sapiens) (UniProt P42679); experiment: MATK Invitrogen selectivity data (BI); details: Compound concentration 3.0 uM
T4 sequence (whole entry): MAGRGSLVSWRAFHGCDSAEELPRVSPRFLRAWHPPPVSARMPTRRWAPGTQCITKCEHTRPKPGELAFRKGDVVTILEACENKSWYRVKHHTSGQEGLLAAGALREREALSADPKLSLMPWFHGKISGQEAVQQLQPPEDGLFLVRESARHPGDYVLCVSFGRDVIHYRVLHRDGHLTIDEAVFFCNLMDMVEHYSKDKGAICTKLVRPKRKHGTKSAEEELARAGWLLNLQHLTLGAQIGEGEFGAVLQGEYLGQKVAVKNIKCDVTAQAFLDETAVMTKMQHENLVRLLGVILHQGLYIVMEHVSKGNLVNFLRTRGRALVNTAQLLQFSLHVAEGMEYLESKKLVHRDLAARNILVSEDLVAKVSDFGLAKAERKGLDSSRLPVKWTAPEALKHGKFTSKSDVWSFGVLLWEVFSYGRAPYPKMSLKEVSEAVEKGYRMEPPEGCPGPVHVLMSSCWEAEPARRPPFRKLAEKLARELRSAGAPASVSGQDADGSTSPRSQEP

[9] = target: Neprilysin (Homo sapiens) (UniProt P08473); experiment: N_ENDOPEP Cerep selectivity data (BI); details: Compound concentration 20.0 uM
[10] = target: Glycogen synthase kinase-3 alpha (Homo sapiens) (UniProt P49840); experiment: GSK3A Invitrogen selectivity data (BI); details: Compound concentration 3.0 uM
[11] = target: Tyrosine-protein kinase Fer (Homo sapiens) (UniProt P16591); experiment: FER Invitrogen selectivity data (BI); details: Compound concentration 3.0 uM
[12] = target: Vasopressin V1a receptor (Homo sapiens) (UniProt P37288); experiment: V1A/HUM Cerep selectivity data (BI); details: Compound concentration 20.0 uM
Chain of Vasopressin V1a receptor (Homo sapiens) (P37288 whole entry, looked up): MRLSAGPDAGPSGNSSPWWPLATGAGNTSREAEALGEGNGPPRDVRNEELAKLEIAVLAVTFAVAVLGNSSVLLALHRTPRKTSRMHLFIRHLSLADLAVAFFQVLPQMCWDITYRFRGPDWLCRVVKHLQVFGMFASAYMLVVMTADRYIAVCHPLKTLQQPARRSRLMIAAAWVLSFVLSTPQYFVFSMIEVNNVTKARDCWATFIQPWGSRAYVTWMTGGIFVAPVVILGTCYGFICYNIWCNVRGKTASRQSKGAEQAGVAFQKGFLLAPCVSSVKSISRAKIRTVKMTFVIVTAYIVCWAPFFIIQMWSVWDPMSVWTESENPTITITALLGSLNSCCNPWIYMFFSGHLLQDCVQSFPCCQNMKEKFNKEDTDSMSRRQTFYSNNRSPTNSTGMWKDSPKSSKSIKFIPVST

Chain of Glycogen synthase kinase-3 alpha (Homo sapiens) (P49840 2-483 limits assumed): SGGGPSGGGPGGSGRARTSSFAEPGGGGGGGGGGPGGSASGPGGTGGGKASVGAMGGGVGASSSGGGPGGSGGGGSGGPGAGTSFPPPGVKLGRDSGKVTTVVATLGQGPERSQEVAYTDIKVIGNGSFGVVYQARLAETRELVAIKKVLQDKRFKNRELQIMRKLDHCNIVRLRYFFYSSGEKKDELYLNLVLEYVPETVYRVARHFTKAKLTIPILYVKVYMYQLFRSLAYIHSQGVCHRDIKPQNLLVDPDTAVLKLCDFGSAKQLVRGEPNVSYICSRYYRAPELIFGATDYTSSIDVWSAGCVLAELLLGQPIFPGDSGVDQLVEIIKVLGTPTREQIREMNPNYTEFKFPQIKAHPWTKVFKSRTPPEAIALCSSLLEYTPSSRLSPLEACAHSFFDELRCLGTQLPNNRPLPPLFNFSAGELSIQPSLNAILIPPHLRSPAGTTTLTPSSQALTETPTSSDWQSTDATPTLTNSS
Chain of Vascular endothelial growth factor receptor 1 (Homo sapiens) (P17948 whole entry): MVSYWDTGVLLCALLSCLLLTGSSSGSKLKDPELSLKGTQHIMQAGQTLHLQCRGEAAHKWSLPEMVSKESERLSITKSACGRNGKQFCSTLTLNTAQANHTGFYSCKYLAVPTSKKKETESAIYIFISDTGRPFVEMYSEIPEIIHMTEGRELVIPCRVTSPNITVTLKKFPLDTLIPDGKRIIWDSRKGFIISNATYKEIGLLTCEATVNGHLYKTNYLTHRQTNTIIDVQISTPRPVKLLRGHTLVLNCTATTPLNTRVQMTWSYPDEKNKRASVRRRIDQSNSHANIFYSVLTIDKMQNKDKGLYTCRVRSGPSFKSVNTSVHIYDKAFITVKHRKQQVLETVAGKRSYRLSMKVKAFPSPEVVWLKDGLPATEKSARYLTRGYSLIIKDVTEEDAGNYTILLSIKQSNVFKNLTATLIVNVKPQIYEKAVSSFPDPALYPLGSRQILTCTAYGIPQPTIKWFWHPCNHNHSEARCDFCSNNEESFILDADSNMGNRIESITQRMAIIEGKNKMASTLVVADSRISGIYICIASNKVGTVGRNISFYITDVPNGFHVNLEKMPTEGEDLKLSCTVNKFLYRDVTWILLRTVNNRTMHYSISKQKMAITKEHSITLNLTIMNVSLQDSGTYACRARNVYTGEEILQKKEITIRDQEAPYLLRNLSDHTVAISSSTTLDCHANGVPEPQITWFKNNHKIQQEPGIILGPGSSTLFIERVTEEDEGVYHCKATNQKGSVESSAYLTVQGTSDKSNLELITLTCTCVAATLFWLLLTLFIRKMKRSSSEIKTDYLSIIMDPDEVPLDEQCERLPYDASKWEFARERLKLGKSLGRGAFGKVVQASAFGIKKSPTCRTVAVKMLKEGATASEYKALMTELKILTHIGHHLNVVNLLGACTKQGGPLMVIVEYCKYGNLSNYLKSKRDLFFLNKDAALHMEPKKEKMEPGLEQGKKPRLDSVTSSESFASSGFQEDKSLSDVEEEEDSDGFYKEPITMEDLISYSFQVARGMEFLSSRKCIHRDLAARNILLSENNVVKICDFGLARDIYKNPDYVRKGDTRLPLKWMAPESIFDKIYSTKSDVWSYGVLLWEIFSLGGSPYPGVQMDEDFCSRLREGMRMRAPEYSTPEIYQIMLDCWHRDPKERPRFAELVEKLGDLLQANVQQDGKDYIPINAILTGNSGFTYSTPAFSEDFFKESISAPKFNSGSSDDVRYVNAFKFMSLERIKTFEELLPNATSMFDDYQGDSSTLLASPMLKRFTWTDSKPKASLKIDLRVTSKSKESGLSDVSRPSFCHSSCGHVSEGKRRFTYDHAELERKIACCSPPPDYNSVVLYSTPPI
Chain of Tyrosine-protein kinase Fer (Homo sapiens) (P16591 whole entry, looked up): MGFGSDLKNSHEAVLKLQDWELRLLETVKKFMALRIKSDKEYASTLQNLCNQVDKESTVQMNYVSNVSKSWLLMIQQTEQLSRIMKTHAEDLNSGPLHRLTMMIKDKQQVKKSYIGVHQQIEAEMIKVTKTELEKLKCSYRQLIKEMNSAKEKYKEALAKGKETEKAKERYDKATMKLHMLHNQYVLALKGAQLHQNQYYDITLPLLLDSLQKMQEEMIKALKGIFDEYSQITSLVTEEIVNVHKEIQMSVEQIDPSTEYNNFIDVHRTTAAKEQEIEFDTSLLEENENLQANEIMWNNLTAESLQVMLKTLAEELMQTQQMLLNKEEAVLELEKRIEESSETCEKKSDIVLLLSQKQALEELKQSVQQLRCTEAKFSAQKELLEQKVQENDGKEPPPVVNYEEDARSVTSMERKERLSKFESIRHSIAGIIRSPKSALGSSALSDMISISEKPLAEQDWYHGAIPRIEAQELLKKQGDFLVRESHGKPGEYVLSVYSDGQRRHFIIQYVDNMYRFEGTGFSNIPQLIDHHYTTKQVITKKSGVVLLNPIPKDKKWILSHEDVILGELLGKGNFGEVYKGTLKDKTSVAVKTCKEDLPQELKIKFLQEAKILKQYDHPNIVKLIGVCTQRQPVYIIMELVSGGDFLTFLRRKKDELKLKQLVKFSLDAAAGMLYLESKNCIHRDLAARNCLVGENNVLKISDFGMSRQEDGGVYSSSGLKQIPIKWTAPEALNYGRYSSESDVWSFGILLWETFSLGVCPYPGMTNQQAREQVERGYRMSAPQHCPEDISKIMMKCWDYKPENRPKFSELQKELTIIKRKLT
Chain of Misshapen-like kinase 1 (Homo sapiens) (Q8N4C8 whole entry, looked up): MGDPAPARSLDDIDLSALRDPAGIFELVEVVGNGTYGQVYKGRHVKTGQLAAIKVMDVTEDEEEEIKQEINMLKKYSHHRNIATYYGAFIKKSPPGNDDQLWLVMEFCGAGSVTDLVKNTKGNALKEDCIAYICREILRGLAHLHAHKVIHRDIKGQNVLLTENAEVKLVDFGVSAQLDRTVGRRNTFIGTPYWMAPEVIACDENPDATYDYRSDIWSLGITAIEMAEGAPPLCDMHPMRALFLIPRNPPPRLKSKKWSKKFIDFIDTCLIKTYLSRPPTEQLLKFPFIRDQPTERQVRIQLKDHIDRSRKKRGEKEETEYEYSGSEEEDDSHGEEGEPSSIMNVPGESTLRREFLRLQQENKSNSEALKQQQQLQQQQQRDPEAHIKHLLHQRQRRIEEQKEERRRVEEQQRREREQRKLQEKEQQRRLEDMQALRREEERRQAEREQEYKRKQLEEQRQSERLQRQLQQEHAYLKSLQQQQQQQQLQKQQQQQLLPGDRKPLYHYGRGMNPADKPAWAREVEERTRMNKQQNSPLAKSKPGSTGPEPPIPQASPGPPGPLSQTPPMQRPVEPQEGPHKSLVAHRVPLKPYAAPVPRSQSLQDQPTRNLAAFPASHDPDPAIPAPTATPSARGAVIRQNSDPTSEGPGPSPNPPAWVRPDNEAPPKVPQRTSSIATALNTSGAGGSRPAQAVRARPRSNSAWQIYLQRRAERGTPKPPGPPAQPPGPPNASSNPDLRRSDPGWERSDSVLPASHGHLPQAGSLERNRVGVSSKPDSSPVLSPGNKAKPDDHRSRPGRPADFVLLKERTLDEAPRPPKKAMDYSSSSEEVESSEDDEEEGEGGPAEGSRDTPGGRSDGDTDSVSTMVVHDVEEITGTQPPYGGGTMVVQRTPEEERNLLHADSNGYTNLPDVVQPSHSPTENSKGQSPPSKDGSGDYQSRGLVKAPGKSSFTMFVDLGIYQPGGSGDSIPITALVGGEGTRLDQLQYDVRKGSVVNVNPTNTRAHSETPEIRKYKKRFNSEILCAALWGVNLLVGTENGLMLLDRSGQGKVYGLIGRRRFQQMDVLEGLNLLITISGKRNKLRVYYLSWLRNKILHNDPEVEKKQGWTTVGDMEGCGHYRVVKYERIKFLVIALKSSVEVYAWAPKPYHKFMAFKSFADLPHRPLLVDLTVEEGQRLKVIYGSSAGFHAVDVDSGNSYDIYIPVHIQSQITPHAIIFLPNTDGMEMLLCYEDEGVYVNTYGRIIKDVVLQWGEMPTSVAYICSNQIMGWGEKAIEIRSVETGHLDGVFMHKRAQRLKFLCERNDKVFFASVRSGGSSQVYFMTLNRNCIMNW

CN(C)C(=O)Cn1cc(-c2nc([C@@](C)(c3ccc(-c4cnc(N)nc4)cc3)C3CC3)no2)cn1 [BI 665915]
residual activity [1]: 36%
residual activity [2]: 96%
residual activity [3]: 93%
residual activity [4]: 101%
residual activity [5]: 85%
residual activity [6]: 98.5%
residual activity [7]: 105%
residual activity [8]: 97.5%
residual activity [9]: 108%
residual activity [10]: 96%
residual activity [11]: 98.5%
residual activity [12]: 50%
